Assays:
Format in all cases: binding
SSTR3 = molecular target: T1, SSTR3 (Homo sapiens, UniProt P32745); experiment: NanoBRET screen HiBiT-SSTR3 in HEK293
T1 construct: purchased Promega (in-house HiBiT-GPCR construct library, NanoBRET)
Method: (§1) Each tracer candidate was screened across the entire library of HiBiT-GPCR constructs using NanoBRET as the detection modality. As depicted in Figure 4A, the specificity of interactions was evaluated through decrease in BRET due to competitive displacement of a bound tracer by excess parental compound. Each tracer was analyzed for binding to each HiBiT-GPCR fusion in the absence and in the presence of competing parental compound. Briefly, HEK293 cells were transfected with HiBiT-GPCR constructs diluted into promoterless DNA to reduce expression and maximize translocation to the cell surface. Each tracer candidate was then screened at concentrations of 1 μM and 0.1 μM across cells expressing these fusions. Cells were treated for 1.5 h with tracer either alone or in the presence of 20 μM competing parental compound (i.e., control). BRET was measured upon addition of purified LgBiT and subsequent complementation with HiBiT genetically fused to a GPCR. The specificity of interactions was assessed through a decrease in BRET signal due to competitive displacement of the bound tracer. To further gauge the robustness of these interactions, the fold response over the control (i.e., BRETtracer/BRETcontrol) was calculated. We chose a 1.5-fold response, which translates to ≥7-fold signal over noise as the minimal threshold required to score an interaction as positive. […]. Below we highlight the screening results obtained for our exemplary fluorescent tracers based on Clozapine, Amitriptyline and AZD1283.
(§2) HiBiT-GPCR DNA constructs were diluted in 10 mM Tris pH 8 to a final concentration of 0.01 μg/μL, arrayed in 96-well plates and stored at −20 °C. For transfection, HEK293 cells were suspended in Opti-MEM (without phenol red) supplemented with 2% fetal bovine serum (Seradigm) and 100 units/mL penicillin–streptomycin (Gibco) at a final concentration of 220,000 cells/mL and dispensed into white 96-well plates at 90 μL/well. Subsequent transfections and screens were carried using an Agilent Bravo Automated Liquid Handling Platform. First, the 96-well HiBiT DNA arrays were diluted 25-fold in Opti-MEM (without serum or phenol red) to a final concentration of 0.0004 μg/μL and 20 μL of the diluted DNAs were transferred into new 96-well plates. Next, promoterless carrier DNA (1 μg/μL) was diluted 25-fold (0.04 μg/μL) and then dispensed into the diluted arrays at 20 μL/well. Following brief mixing, Viafect transfection reagent (Promega) diluted 16-fold into Opti-MEM was dispensed into the plates at 40 μL/well. After mixing by pipetting, plates were incubated for 10 min on the pipetting station deck. The DNA-transfection reagent complexes were then added to plates containing cells. To facilitate the screen, 10 μL of DNA-transfection reagent complexes were added in duplicates to the top 4 and bottom 4 rows, resulting in two identical 48-well arrays per plate. Plates with transfected cells were incubated for 18–20 h at 37 °C/5% CO2. A screen of each tracer across the entire library using two different concentrations requires duplicate plates of transfected cells. Depending on the number of tracers being screened, transfections can be scaled up using the same ratios. The next day, for each tracer, four 20× screening solutions in tracer dilution buffer (Promega) were prepared: two duplicates at final concentration of 20 μM and two duplicates at a final concentration of 2 μM. A competing unmodified compound was added to one of each duplicate at a final concentration of 400 μM. The four resulting solutions were diluted 4-fold in Opti-MEM without serum or phenol red to generate 5× solutions (5 µM and 0.5 µM tracer +/− 100 μM competing compound). To screen the library, a BioTek MultiFlo FX liquid dispenser was used to dispense 22.5 µL of tracer solution to the top 4 rows and 22.5 µL tracer + competing compound solution to the 4 bottom rows. Plates were briefly mixed on an orbital shaker and incubated for 1.5 h at room temperature. […]

F2RL2 = molecular target: T2, F2RL2 (Homo sapiens, UniProt O00254); experiment: NanoBRET screen HiBiT-F2RL2 in HEK293
T2 construct: purchased Promega (in-house HiBiT-GPCR construct library, NanoBRET)
T2 sequence (O00254 22-374): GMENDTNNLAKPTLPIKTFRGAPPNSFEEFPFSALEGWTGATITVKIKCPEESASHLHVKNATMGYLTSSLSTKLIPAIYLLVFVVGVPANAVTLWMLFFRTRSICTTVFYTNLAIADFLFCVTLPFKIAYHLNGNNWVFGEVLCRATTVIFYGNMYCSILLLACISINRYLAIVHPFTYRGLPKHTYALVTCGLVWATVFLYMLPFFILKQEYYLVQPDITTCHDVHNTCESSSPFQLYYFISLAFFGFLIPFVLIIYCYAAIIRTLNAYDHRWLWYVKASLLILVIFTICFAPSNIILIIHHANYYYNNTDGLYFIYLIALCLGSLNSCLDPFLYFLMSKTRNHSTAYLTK
Method: as §1, §2

HTR1D = molecular target: T3, HTR1D (Homo sapiens, UniProt P28221); experiment: NanoBRET screen HiBiT-HTR1D in HEK293
T3 construct: purchased Promega (in-house HiBiT-GPCR construct library, NanoBRET)
T3 sequence (P28221 whole entry): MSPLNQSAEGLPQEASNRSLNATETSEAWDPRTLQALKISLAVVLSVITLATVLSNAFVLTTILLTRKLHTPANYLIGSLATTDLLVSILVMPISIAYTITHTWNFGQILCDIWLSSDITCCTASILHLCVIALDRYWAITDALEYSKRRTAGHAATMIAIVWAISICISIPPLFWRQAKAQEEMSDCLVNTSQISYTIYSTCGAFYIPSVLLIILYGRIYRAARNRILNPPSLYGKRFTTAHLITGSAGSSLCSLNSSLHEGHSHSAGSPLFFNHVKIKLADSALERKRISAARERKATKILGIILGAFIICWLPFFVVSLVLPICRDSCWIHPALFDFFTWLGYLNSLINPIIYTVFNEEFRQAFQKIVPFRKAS
Method: as §1, §2

[1] = tracer at 1μM, listed as amitriptyline-b-2-NB590

T1 sequence (P32745 whole entry): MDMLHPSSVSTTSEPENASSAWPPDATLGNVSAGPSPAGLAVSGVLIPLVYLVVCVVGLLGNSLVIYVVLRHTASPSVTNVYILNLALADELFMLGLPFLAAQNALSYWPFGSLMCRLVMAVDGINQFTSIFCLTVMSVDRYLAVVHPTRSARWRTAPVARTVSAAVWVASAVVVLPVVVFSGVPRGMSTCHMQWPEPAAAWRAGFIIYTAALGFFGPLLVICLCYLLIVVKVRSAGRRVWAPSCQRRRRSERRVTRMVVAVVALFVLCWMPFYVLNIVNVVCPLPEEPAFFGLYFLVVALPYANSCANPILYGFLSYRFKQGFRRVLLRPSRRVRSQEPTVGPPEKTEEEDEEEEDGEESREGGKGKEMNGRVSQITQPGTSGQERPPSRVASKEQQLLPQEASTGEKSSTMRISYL

Row | SMILES | NanoBRET Fold Response (SSTR3; SSTR3, tracer 0.1μM) | NanoBRET Fold Response (SSTR3; SSTR3, tracer 1μM) | NanoBRET Fold Response (F2RL2; F2RL2, tracer 0.1μM) | NanoBRET Fold Response (F2RL2; F2RL2, tracer 1μM) | NanoBRET Fold Response (HTR1D; HTR1D, tracer 0.1μM) | NanoBRET Fold Response (HTR1D; HTR1D, tracer 1μM) | further results
1 | O=C(CCc1ccc2n1[B-](F)(F)[N+]1=C(c3ccc[nH]3)C=CC1=C2)NCc1ccc(C(=O)NCCOCCC(=O)N[C@@H]2CC[C@@]3(O)[C@H]4Cc5ccc(O)c6c5[C@@]3(CCN4CC3CC3)[C@H]2O6)cc1 [Naltrexone-3-NB590] | 0.97 | 1.01 | 1.07 | 1.02 | 0.53 | 0.94 | 
2 | CCCn1c(=O)c2[nH]c(-c3ccc(OCC(=O)NCCNC(=O)CCOCCNC(=O)c4ccc(CNC(=O)CCc5ccc6n5[B-](F)(F)[N+]5=C(c7ccc[nH]7)C=CC5=C6)cc4)cc3)nc2n(CCC)c1=O [XAC-3-NB590] | 0.99 | 0.98 | 0.95 | 1.04 | 0.47 | 0.65 | 
3 | CC(C)N(CC[C@H](c1ccccc1)c1cc(CCNC(=O)c2ccc(CNC(=O)CCc3ccc4n3[B-](F)(F)[N+]3=C(c5ccc[nH]5)C=CC3=C4)cc2)ccc1O)C(C)C [Tolterodine-BZ-NB590] | 1.01 | 1.04 | 1.01 | 1.04 | 1.27 | 0.92 | 
4 | N#CN/C(=N\CCNC(=O)c1ccc(N)cc1)NCCCOc1cccc(CN2CCCCC2)c1 [Aminopotentidine (unmodified)] |  |  |  |  |  |  | NanoBRET Fold Response (HTR1D; HTR1D, other tracers/Aminopotentidine (unmodified), 0.1μM): 1.06; NanoBRET Fold Response (HTR1D; HTR1D, other tracers/Aminopotentidine (unmodified), 1μM): 1.50
5 | COc1ccc2[nH]c(-c3ccc(CNC(=O)CCOCCOCCOCCOCCNC(=O)CCc4ccc5n4[B-](F)(F)[N+]4=C(c6ccc[nH]6)C=CC4=C5)cc3)c(CCNC(C)=O)c2n1 [AzomelatoninICO9-2-NB590] |  |  |  |  |  |  | NanoBRET Fold Response (SSTR3; 0.1μM tracer): 0.94; NanoBRET Fold Response (SSTR3; 1μM tracer): 1.01; NanoBRET Fold Response (F2RL2; 0.1μM tracer): 0.86; NanoBRET Fold Response (F2RL2; 1μM tracer): 0.99; NanoBRET Fold Response (HTR1D; 0.1μM tracer): 0.63; NanoBRET Fold Response (HTR1D; 1μM tracer): 1.14
6 | CN1CCN(C2=Nc3cc(Cl)ccc3N(CC(=O)NCCOCCOCCOCCOCCNC(=O)CCc3ccc4n3[B-](F)(F)[N+]3=C(c5ccc[nH]5)C=CC3=C4)c3ccccc32)CC1 [Clozapine-c-2-NB590] |  |  |  |  |  |  | NanoBRET Fold Response (SSTR3; SSTR3, 0.1μM tracer): 0.95; NanoBRET Fold Response (SSTR3; SSTR3, 1μM tracer): 1.02; NanoBRET Fold Response (F2RL2; F2RL2, 0.1μM tracer): 1.20; NanoBRET Fold Response (F2RL2; F2RL2, 1μM tracer): 0.97; NanoBRET Fold Response (HTR1D; HTR1D, 0.1μM tracer): 1.00; NanoBRET Fold Response (HTR1D; HTR1D, 1μM tracer): 1.00
7 | COc1ccccc1N1CCN(CCCCN2C(=O)c3ccc(CNC(=O)CCOCCNC(=O)c4ccc(CNC(=O)CCc5ccc6n5[B-](F)(F)[N+]5=C(c7ccc[nH]7)C=CC5=C6)cc4)cc3C2=O)CC1 [NAN-190-3-NB590] | 1.07 | 0.93 | 1.10 | 0.95 | 1.11 | 1.70 | 
8 | Cc1nc2n(c(=O)c1CCN1CCC(c3noc4cc(F)ccc34)CC1)CCCC2OC(=O)NCCOCCOCCOCCOCCNC(=O)CCc1ccc2n1[B-](F)(F)[N+]1=C(c3ccc[nH]3)C=CC1=C2 (stereo not drawn) [Risperidone-2-NB590] | 0.92 | 0.99 | 0.94 | 1.08 | 1.38 | 1.86 | 
9 | O=C(CCOCCOCCOCCOCCNC(=O)CCc1ccc2n1[B-](F)(F)[N+]1=C(c3ccc[nH]3)C=CC1=C2)NCCCN1CCN(C2=Nc3ccccc3Oc3ccc(Cl)cc32)CC1 [Loxapine-a-2-NB590] | 1.01 | 1.25 | 1.03 | 1.12 | 1.35 | 1.74 | 
10 | COc1ccccc1N1CCN(CCCCN2C(=O)c3ccc(CNC(=O)CCOCCOCCOCCOCCNC(=O)CCc4ccc5n4[B-](F)(F)[N+]4=C(c6ccc[nH]6)C=CC4=C5)cc3C2=O)CC1 [NAN-190-2-NB590] | 1.00 | 1.05 | 1.02 | 1.01 | 1.35 | 1.41 | 
11 | CC(C)N(CC[C@H](c1ccccc1)c1cc(CCNC(=O)CCOCCOCCOCCOCCNC(=O)CCc2ccc3n2[B-](F)(F)[N+]2=C(c4ccc[nH]4)C=CC2=C3)ccc1O)C(C)C [Tolterodine-2-NB590] | 1.08 | 1.17 | 1.02 | 1.04 | 1.35 | 0.68 | 
12 | N#CN=C(NCCCOc1cccc(CN2CCCCC2)c1)NCCNC(=O)CCOCCOCCOCCOCCNC(=O)CCc1ccc2n1[B-](F)(F)[N+]1=C(c3ccc[nH]3)C=CC1=C2 [Aminopotentidine-2-NB590] | 1.03 | 0.99 | 0.95 | 1.02 | 1.40 | 1.21 | 
13 | CCOC(=O)c1cc(C#N)c(N2CCC(C(=O)NS(=O)(=O)Cc3ccccc3/C=C/C(=O)NCCNC(=O)CCc3ccc4n3[B-](F)(F)[N+]3=C(c5ccc[nH]5)C=CC3=C4)CC2)nc1C [AZD1283-1-NB590] |  |  |  |  |  |  | NanoBRET Fold Response (SSTR3; SSTR3, 0.1μM): 1.07; NanoBRET Fold Response (SSTR3; SSTR3, 1μM): 1.13; NanoBRET Fold Response (F2RL2; F2RL2, 0.1μM): 1.01; NanoBRET Fold Response (F2RL2; F2RL2, 1μM): 1.12; NanoBRET Fold Response (HTR1D; HTR1D, 0.1μM): 0.90; NanoBRET Fold Response (HTR1D; HTR1D, 1μM): 0.88
14 | CN(C)CCC=C1c2ccccc2CCc2ccc(C(=O)NCCNC(=O)CCOCCOCCOCCOCCNC(=O)CCc3ccc4n3[B-](F)(F)[N+]3=C(c5ccc[nH]5)C=CC3=C4)cc21 [Amitriptyline-b-2-NB590] |  |  |  |  |  |  | NanoBRET Fold Response (SSTR3; tracer at 0.1μM): 0.95; NanoBRET Fold Response (SSTR3; tracer at 1μM): 0.99; NanoBRET Fold Response (F2RL2; tracer at 0.1μM): 1.16; NanoBRET Fold Response (F2RL2; [1]): 0.92; NanoBRET Fold Response (HTR1D; tracer at 0.1μM, listed as amitriptyline-b-2-NB590): 1.43; NanoBRET Fold Response (HTR1D; [1]): 0.74
15 | CN(C)CCC=C1c2ccccc2CCc2ccc(C(=O)NCCNC(=O)CCOCCOCCOCCOCCNC(=O)CCc3ccc4n3[B-](F)(F)[N+]3=C(c5ccc[nH]5)C=CC3=C4)cc21 [Amitriptyline-a-2-NB590] |  |  |  |  |  |  | NanoBRET Fold Response (SSTR3; tracer at 0.1μM): 1.05; NanoBRET Fold Response (SSTR3; tracer at 1μM): 1.05; NanoBRET Fold Response (F2RL2; tracer at 0.1μM): 1.03; NanoBRET Fold Response (F2RL2; tracer at 1μM): 0.99; NanoBRET Fold Response (HTR1D; tracer at 0.1μM): 1.09; NanoBRET Fold Response (HTR1D; tracer at 1μM): 1.09
16 | CN(CCC=C1c2ccccc2CCc2ccccc21)C(=O)CCOCCOCCOCCOCCNC(=O)CCc1ccc2n1[B-](F)(F)[N+]1=C(c3ccc[nH]3)C=CC1=C2 [Amitriptyline-e-2-NB590] |  |  |  |  |  |  | NanoBRET Fold Response (HTR1D; tracer at 1μM): 0.96
